What is called viability is a read-out of living cells in per cent, often relative to untreated cells.

In paper PMC12040169 (PLOS Biology, 2025) one finds viability data, which are given here for 80 molecules.

This series in a line: in vitro. Conditions: human, hela cells, % viability.
Regarding `CN(C)c1ccnc2sc(C(N)=O)c(N)c12` [CBK061708], the viability at 28.5 h, 10 µM came out at 94%.
In the case of `O=C(Nc1cccc(C(F)(F)F)c1)Nc1cc(N2CCNCC2)c2occc2c1` [CBK061746C] it was 91.4%; in that of `Cn1cc(CCCC(=O)NCCC2=CCCCC2)c2ccccc21` [CBK061756], 99.2%.
Turning to `O=C(Nc1cc(N2CCNCC2)c2occc2c1)c1cccc(C(F)(F)F)c1` [CBK061762C], the viability at 28.5 h, 10 µM is 86.5%.
In the case of `CCNC(CO)c1ccccc1` (centres unmarked) [CBK061785], the viability at 28.5 h, 10 µM was found to be 109%.
In the case of `Fc1ccc(OCCN2CCC3(C2)OCCc2c3[nH]c3ccccc23)cc1` (centres unmarked) [CBK061787] it was 86.7%; in that of `Cc1ccc2[nH]cc(CCN3CCC4(C3)OCCc3c4[nH]c4ccccc34)c2c1` (centres unmarked) [CBK061790], 84.7%.
`CC(=O)c1ccc(-c2ccc3ccc(N)nc3n2)cc1` [CBK061862]: the viability at 28.5 h, 10 µM was found to be 84.4%.
Take `Nc1ccc2ccc(-c3ccccc3)nc2n1` [CBK061865]: the viability at 28.5 h, 10 µM came to 97%.
`CC(C)(C)c1ccc(-c2ccc3ccc(N)nc3n2)cc1` [CBK061872]: the viability at 28.5 h, 10 µM amounted to 79.3%.
In the case of `CC(=O)c1ccc(-c2nc(NS(C)(=O)=O)cc3cccnc23)cc1` [CBK061874], the viability at 28.5 h, 10 µM amounted to 96.3%.
In the case of `COc1cc(-c2nc(N)cc3cccnc23)cc(OC)c1OC` [CBK061892], the viability at 28.5 h, 10 µM worked out at 101%.
As to `CS(=O)(=O)Nc1ccc2cc(-c3ccccc3)cnc2n1` [CBK061899], the viability at 28.5 h, 10 µM stood at 91.2%.
In the case of `CN1CCC2(CC1)NCCc1c2ccn1S(=O)(=O)c1ccc(I)cc1` [CBK061945C] it was 111%; in that of `Cc1nn(C)c(Cl)c1S(=O)(=O)Nc1nnc(C(F)(F)F)s1` [CBK062003], 92%; in that of `O=S(=O)(Nc1nnc(C(F)(F)F)s1)c1ccc(Oc2ccccc2)cc1` [CBK062007], 92.6%.
In the case of `O=S(=O)(Nc1nnc(C(F)(F)F)s1)c1csc2ccccc12` [CBK062009] it was 95.9%.
As to `O=S(=O)(Nc1nnc(C(F)(F)F)s1)c1ccc(Br)cc1C(F)(F)F` [CBK062013], the viability at 28.5 h, 10 µM was 96.7%.
Consider `Cc1nnc(-c2cccc(S(=O)(=O)Nc3nnc(C(F)(F)F)s3)c2)o1` [CBK062014], for which the viability at 28.5 h, 10 µM turned out to be 99.1%.
In the case of `Cn1nc(-c2ccc(S(=O)(=O)Nc3nnc(C(F)(F)F)s3)s2)cc1C(F)(F)F` [CBK062017], the viability at 28.5 h, 10 µM was determined as 103%.
In the case of `O=S(=O)(Nc1nnc(C(F)(F)F)s1)c1ccc(-c2cc(C(F)(F)F)on2)s1` [CBK062019] it was 91.1%; in that of `O=S(=O)(NC1CCN(Cc2ccccc2)CC1)c1ccc(-c2ccon2)s1` [CBK062038], 93.5%.
As to `Cn1nccc1NS(=O)(=O)c1cccc2cccnc12` [CBK062069], the viability at 28.5 h, 10 µM came out at 98.9%.
In the case of `Cc1nn(C)c(Cl)c1S(=O)(=O)Nc1ccnn1C` [CBK062072] it was 85.6%.
In the case of `Cn1nccc1NS(=O)(=O)c1ccc(Br)cc1C(F)(F)F` [CBK062082] it was 104%; in that of `Cn1nccc1NS(=O)(=O)c1ccc(-c2cc(C(F)(F)F)on2)s1` [CBK062087], 97.4%; in that of `O=S(=O)(Nc1ccc(C(O)(C(F)(F)F)C(F)(F)F)cc1)c1cccc2cccnc12` [CBK062092], 91%.
In the case of `O=[N+]([O-])c1cccc(S(=O)(=O)Nc2ccc(C(O)(C(F)(F)F)C(F)(F)F)cc2)c1` [CBK062093] it was 102%; in that of `O=S(=O)(Nc1ccc(C(O)(C(F)(F)F)C(F)(F)F)cc1)c1csc2ccccc12` [CBK062098], 85.4%; in that of `O=[N+]([O-])c1cc(S(=O)(=O)Nc2ccc(C(O)(C(F)(F)F)C(F)(F)F)cc2)ccc1Cl` [CBK062106], 92.9%.
For `Cc1noc(C)c1S(=O)(=O)NCc1ccc(C(F)(F)F)c(F)c1` [CBK062112], the viability at 28.5 h, 10 µM is 94.2%.
With `O=S(=O)(NCc1ccc(C(F)(F)F)c(F)c1)c1cccc2nsnc12` [CBK062113], the viability at 28.5 h, 10 µM is 94.3%.
For the molecule `CS(=O)(=O)Nc1cccc(-c2nnn[nH]2)c1` [CBK062150], the viability at 28.5 h, 10 µM stood at 90.4%.
In the case of `Cc1nn(C)c(Cl)c1S(=O)(=O)NCc1cc(C)n(C)n1` [CBK062154] it was 94.5%; in that of `Cc1noc(C)c1S(=O)(=O)NCc1cc(C)n(C)n1` [CBK062155], 103%.
In the case of `Cc1cc(CNS(=O)(=O)c2cccc3nonc23)nn1C` [CBK062157] it was 98.2%.
With `CCc1nnc(NS(=O)(=O)c2c(C)nn(C)c2Cl)s1` [CBK062180], the viability at 28.5 h, 10 µM was 112%.
In the case of `CCc1nnc(NS(C)(=O)=O)s1` [CBK062197], the viability at 28.5 h, 10 µM amounted to 93%.
In the case of `O=S(=O)(Nc1cc(Cl)nc(Cl)c1)c1ccc(-c2cc(C(F)(F)F)on2)s1` [CBK062215] it was 90.9%.
In the case of `O=S(=O)(Nc1ccc2nsnc2c1)c1cccc(C(F)(F)F)c1` [CBK062221], the viability at 28.5 h, 10 µM came out at 106%.
In the case of `Cc1noc(C)c1S(=O)(=O)Nc1ccc2nsnc2c1` [CBK062223] it was 90.4%; in that of `Cc1c(S(=O)(=O)Nc2ccc3nsnc3c2)cnn1-c1ccccc1` [CBK062229], 87.6%; in that of `O=S(=O)(Nc1ccc2nsnc2c1)c1ccc(Br)cc1C(F)(F)F` [CBK062233], 115%.
In the case of `Cc1cc(CNS(=O)(=O)c2c(C)noc2C)no1` [CBK062261] it was 91.4%; in that of `Cc1cc(CNS(=O)(=O)c2cccc3nonc23)no1` [CBK062263], 106%.
In the case of `Cc1cc(CNS(=O)(=O)c2ccc(-c3ccon3)s2)no1` [CBK062276] it was 103%; in that of `Cc1nn(C)c(Cl)c1S(=O)(=O)Nc1cccnc1N1CCOCC1` [CBK062286], 99.5%.
Consider `O=S(=O)(Nc1cccnc1N1CCOCC1)c1cc(C(F)(F)F)cc(C(F)(F)F)c1` [CBK062306], for which the viability at 28.5 h, 10 µM amounted to 122%.
In the case of `Cc1cnc(CNS(=O)(=O)c2cnn(-c3ccccc3)c2C)cn1` [CBK062335] it was 96.5%.
In the case of `Cc1cc(OC(F)(F)F)ccc1NS(=O)(=O)c1cnn(-c2ccccc2)c1C` [CBK062354] it was 91.1%.
In the case of `O=S(=O)(Nc1nnn[nH]1)c1cccc2nsnc12` [CBK062379] it was 99%; in that of `O=S(=O)(Nc1nnn[nH]1)c1cccc2nonc12` [CBK062380], 104%.
As for `O=S(=O)(Nc1nnn[nH]1)c1ccc(-c2ccccc2)cc1` [CBK062381], the viability at 28.5 h, 10 µM stood at 99.7%.
Consider `O=S(=O)(Nc1nnn[nH]1)c1ccccc1Br` [CBK062386], for which the viability at 28.5 h, 10 µM is 96.3%.
Take `O=S(=O)(Nc1nnn[nH]1)c1ccc(Cl)c(Cl)c1` [CBK062387]: the viability at 28.5 h, 10 µM was 106%.
In the case of `O=S(=O)(Nc1nnn[nH]1)c1ccc(Br)cc1C(F)(F)F` [CBK062388] it was 104%.
As to `Cn1nc(-c2ccc(S(=O)(=O)Nc3nnn[nH]3)s2)cc1C(F)(F)F` [CBK062390], the viability at 28.5 h, 10 µM was determined as 94.4%.
With `Cc1c(S(=O)(=O)Nc2nnn[nH]2)sc2ccc(Cl)cc12` [CBK062392], the viability at 28.5 h, 10 µM came to 91.7%.
In the case of `O=S(=O)(Nc1nnn[nH]1)c1ccc(-c2cc(C(F)(F)F)on2)s1` [CBK062393], the viability at 28.5 h, 10 µM came out at 96.9%.
In the case of `O=S(=O)(c1csc2ccccc12)N1CCOCC1` [CBK062401] it was 90.7%; in that of `CN1CCN(S(=O)(=O)c2ccc(Oc3ccccc3)cc2)CC1` [CBK062430], 113%; in that of `CN1CCN(S(=O)(=O)c2ccc(N3CCOCC3)nc2)CC1` [CBK062434], 87.9%.
With `CN1CCN(S(=O)(=O)c2ccc(Br)cc2C(F)(F)F)CC1` [CBK062437], the viability at 28.5 h, 10 µM was found to be 90.7%.
`CC(CCCC(C)(C)O)NS(=O)(=O)c1ccc(-c2ccon2)s1` (centres unmarked) [CBK062466]: the viability at 28.5 h, 10 µM stood at 93.8%.
As for `Cc1c(S(=O)(=O)NC(C)CCCC(C)(C)O)sc2ccc(Cl)cc12` (centres unmarked) [CBK062467], the viability at 28.5 h, 10 µM turned out to be 93.5%.
Consider `O=c1ccc2cc(S(=O)(=O)Nc3ccc4[nH]ccc4c3)ccc2o1` [CBK062503], for which the viability at 28.5 h, 10 µM was determined as 54.8%.
In the case of `Cc1noc(C)c1S(=O)(=O)Nc1ccc2[nH]ncc2c1` [CBK062518] it was 87.8%; in that of `O=S(=O)(Nc1ccc2[nH]ncc2c1)c1ccc(Br)cc1C(F)(F)F` [CBK062529], 100%; in that of `O=S(=O)(Nc1nnn[nH]1)c1csc2ccccc12` [CBK062590], 103%.
`COc1ccc(CCNC(=O)[C@@H]2Cc3c([nH]c4ccccc34)[C@]3(CCN(Cc4ccccc4)C3)N2)cc1OC` [CBK062620]: the viability at 28.5 h, 10 µM was 114%.
As to `Cn1c(-c2nonc2N)nc2ccccc21` [CBK062642], the viability at 28.5 h, 10 µM turned out to be 94.5%.
In the case of `O=C(Nc1nonc1-c1nc2ccccc2n1CCOC(=O)c1ccc(F)cc1)c1ccc(F)cc1` [CBK062653] it was 102%; in that of `Nc1nonc1-c1nc2ccccc2[nH]1` [CBK062657], 89.4%.
In the case of `Cc1nc2n(CC#N)c3ccccc3n2n1` [CBK062670] it was 99.7%.
For `Cn1nccc1NS(=O)(=O)c1cc(C(=O)O)c(Cl)cc1F` [CBK062712], the viability at 28.5 h, 10 µM turned out to be 106%.
In the case of `CS(=O)(=O)Nc1ccc2[nH]ccc2c1` [CBK062728] it was 91.2%; in that of `CC(C)CN1CCN(S(=O)(=O)c2ccc(C(F)(F)F)cc2Cl)CC1` [CBK062740], 113%.
In the case of `CCOc1ccc(S(=O)(=O)N2CCCN(Cc3cccc(C(F)(F)F)c3)CC2)c2cccnc12` [CBK062760] it was 84.3%.
In the case of `CC(=O)c1ccc(CN2CCCN(S(=O)(=O)c3ccc(C(=O)c4ccccc4)cc3)CC2)cc1` [CBK062764] it was 109%; in that of `COC(=O)c1cc(CN2CCCN(S(=O)(=O)c3ccc(C(=O)c4ccccc4)cc3)CC2)cn1C` [CBK062770], 97.2%.
